Reference: the CheMixHub viscosity set

Test: xn = mol fraction of the nth substance listed

Cc1ncc(C[n+]2csc(CCO)c2C)c(N)n1.Cl.[Cl-] + O
Conditions | viscosity [mPa·s]
293.15 K, 101 kPa, x1 = 0.00036 | 1.014
293.15 K, 101 kPa, x1 = 0.00072 | 1.027
293.15 K, 101 kPa, x1 = 0.00108 | 1.041
293.15 K, 101 kPa, x1 = 0.00144 | 1.057
293.15 K, 101.3 kPa, x1 = 0.000445 | 1.015
293.15 K, 101.3 kPa, x1 = 0.000886 | 1.029
293.15 K, 101.3 kPa, x1 = 0.00177 | 1.063
293.15 K, 101.3 kPa, x1 = 0.002215 | 1.08
298.15 K, 101 kPa, x1 = 0.00036 | 0.9013
298.15 K, 101 kPa, x1 = 0.000364 | 0.9024
298.15 K, 101 kPa, x1 = 0.000385 | 0.914
298.15 K, 101 kPa, x1 = 0.000657 | 0.914
298.15 K, 101 kPa, x1 = 0.00072 | 0.9129
298.15 K, 101 kPa, x1 = 0.000731 | 0.929
298.15 K, 101 kPa, x1 = 0.000952 | 0.9244
298.15 K, 101 kPa, x1 = 0.00107 | 0.941
298.15 K, 101 kPa, x1 = 0.00108 | 0.9266
298.15 K, 101 kPa, x1 = 0.00125 | 0.9372
298.15 K, 101 kPa, x1 = 0.00144 | 0.9406
298.15 K, 101 kPa, x1 = 0.00145 | 0.96
298.15 K, 101 kPa, x1 = 0.00155 | 0.9488
298.15 K, 101 kPa, x1 = 0.001658 | 0.9532
298.15 K, 101 kPa, x1 = 0.001695 | 0.9545
298.15 K, 101 kPa, x1 = 0.001856 | 0.959
298.15 K, 101 kPa, x1 = 0.001922 | 0.98
298.15 K, 101 kPa, x1 = 0.002519 | 0.9786
298.15 K, 101 kPa, x1 = 0.002881 | 1.013
298.15 K, 101 kPa, x1 = 0.003713 | 1.05
298.15 K, 101 kPa, x1 = 0.003828 | 1.034
298.15 K, 101 kPa, x1 = 0.004291 | 1.055
298.15 K, 101 kPa, x1 = 0.004534 | 1.083
298.15 K, 101 kPa, x1 = 0.005245 | 1.097
298.15 K, 101 kPa, x1 = 0.005408 | 1.111
298.15 K, 101 kPa, x1 = 0.007149 | 1.185
298.15 K, 101 kPa, x1 = 0.00796 | 1.228
298.15 K, 101 kPa, x1 = 0.009056 | 1.254
298.15 K, 101 kPa, x1 = 0.009864 | 1.281
298.15 K, 101.3 kPa, x1 = 0.000445 | 0.902
298.15 K, 101.3 kPa, x1 = 0.000886 | 0.916
298.15 K, 101.3 kPa, x1 = 0.00133 | 0.931
298.15 K, 101.3 kPa, x1 = 0.00177 | 0.947
298.15 K, 101.3 kPa, x1 = 0.002215 | 0.963
303.15 K, 101 kPa, x1 = 0.00036 | 0.8078
303.15 K, 101 kPa, x1 = 0.00072 | 0.8185
303.15 K, 101 kPa, x1 = 0.00108 | 0.8322
303.15 K, 101 kPa, x1 = 0.00144 | 0.8443
303.15 K, 101.3 kPa, x1 = 0.000445 | 0.808
303.15 K, 101.3 kPa, x1 = 0.000886 | 0.822
303.15 K, 101.3 kPa, x1 = 0.00133 | 0.836
303.15 K, 101.3 kPa, x1 = 0.00177 | 0.85
303.15 K, 101.3 kPa, x1 = 0.002215 | 0.864
308.15 K, 101 kPa, x1 = 0.00036 | 0.729
308.15 K, 101 kPa, x1 = 0.000364 | 0.7301
308.15 K, 101 kPa, x1 = 0.000657 | 0.7393
308.15 K, 101 kPa, x1 = 0.00072 | 0.7391
308.15 K, 101 kPa, x1 = 0.000952 | 0.7485
308.15 K, 101 kPa, x1 = 0.00108 | 0.7506
308.15 K, 101 kPa, x1 = 0.00125 | 0.7576
308.15 K, 101 kPa, x1 = 0.00144 | 0.7631
308.15 K, 101 kPa, x1 = 0.00155 | 0.768
308.15 K, 101 kPa, x1 = 0.001658 | 0.7726
308.15 K, 101 kPa, x1 = 0.001695 | 0.7711
308.15 K, 101 kPa, x1 = 0.001856 | 0.7772
308.15 K, 101 kPa, x1 = 0.002519 | 0.8005
308.15 K, 101 kPa, x1 = 0.003828 | 0.837
308.15 K, 101 kPa, x1 = 0.004291 | 0.8515
308.15 K, 101 kPa, x1 = 0.005245 | 0.8799
308.15 K, 101.3 kPa, x1 = 0.000445 | 0.73
308.15 K, 101.3 kPa, x1 = 0.000886 | 0.743
308.15 K, 101.3 kPa, x1 = 0.00177 | 0.77
308.15 K, 101.3 kPa, x1 = 0.002215 | 0.783
313.15 K, 101 kPa, x1 = 0.00036 | 0.6623
313.15 K, 101 kPa, x1 = 0.00072 | 0.6722
313.15 K, 101 kPa, x1 = 0.00108 | 0.6831
313.15 K, 101 kPa, x1 = 0.00144 | 0.6947
313.15 K, 101.3 kPa, x1 = 0.000445 | 0.664
313.15 K, 101.3 kPa, x1 = 0.000886 | 0.676
313.15 K, 101.3 kPa, x1 = 0.00133 | 0.689
313.15 K, 101.3 kPa, x1 = 0.00177 | 0.702
313.15 K, 101.3 kPa, x1 = 0.002215 | 0.713
318.15 K, 101 kPa, x1 = 0.000364 | 0.6037
318.15 K, 101 kPa, x1 = 0.000657 | 0.6116
318.15 K, 101 kPa, x1 = 0.000952 | 0.6196
318.15 K, 101 kPa, x1 = 0.00125 | 0.6275
318.15 K, 101 kPa, x1 = 0.00155 | 0.6343
318.15 K, 101 kPa, x1 = 0.001658 | 0.6377
318.15 K, 101 kPa, x1 = 0.001695 | 0.6389
318.15 K, 101 kPa, x1 = 0.001856 | 0.6413
318.15 K, 101 kPa, x1 = 0.002519 | 0.6591
318.15 K, 101 kPa, x1 = 0.003828 | 0.6919
318.15 K, 101 kPa, x1 = 0.005245 | 0.7256
318.15 K, 101.3 kPa, x1 = 0.000445 | 0.606
318.15 K, 101.3 kPa, x1 = 0.000886 | 0.618
318.15 K, 101.3 kPa, x1 = 0.00133 | 0.63
318.15 K, 101.3 kPa, x1 = 0.00177 | 0.642
318.15 K, 101.3 kPa, x1 = 0.002215 | 0.653
